Experimental findings from publication PMC12530851, “Design, synthesis, and apoptotic antiproliferative activity of novel dihydropyrimidine-5-carbonitrile/1,2,4-oxadiazole hybrids as dual EGFR/VEGFR-2 inhibitors endowed with antioxidant activity” (RSC Advances, 2025) are described below.

The term IC50 denotes the midpoint of a concentration-inhibition curve. The GI50 is the concentration at which growth is held to half of that of the control. Read a high GI50 as lower sensitivity of the cells. The term viability denotes the share of living cells, or the viability signal relative to a control.

In series [1] the test system is Panc-1 (pancreatic cancer). In words: Antiproliferative assay, Panc-1. The format is cell-based. The conditions noted are these: Homo sapiens; Panc-1 pancreatic cancer cells; read-out: Antiproliferative activity IC50 ± SEM, Panc-1. The source says: (§1) The dose–response experiments established the IC50 values for the new compounds. The given findings were obtained from at least two distinct studies, each comprising three repeats per concentration. Appendix A (SI File) provides experimental details.[38,39]
(§2) The MTT assay[43] was utilized to assess the antiproliferative effects of compounds 10a–l on four human cancer cell lines: HT-29 (colon cancer), Panc-1 (pancreatic cancer), A-549 (lung cancer), and MCF-7 (breast cancer). […]
(§3) 4.2.2. Assay for antiproliferative effect
(§4) To explore the antiproliferative potential of compounds propidium iodide fluorescence assay was performed using different cell lines such as Panc-1 (pancreas cancer cell line), MCF-7 (breast cancer cell line), HT-29 (colon cancer cell line) and A-549 (epithelial cancer cell line), respectively. To calculate the total nuclear DNA, a fluorescent dye (propidium iodide, PI) is used which can attach to the DNA, thus offering a quick and precise technique. PI cannot pass through the cell membrane and its signal intensity can be considered as directly proportional to quantity of cellular DNA. Cells whose cell membranes are damaged or have changed permeability are counted as dead ones. The assay was performed by seeding the cells of different cell lines at a density of 3000-7500 cells/well (in 200μl medium) in culture plates followed by incubation for 24h at 37 °C in humidified 5%CO2/95% air atmospheric conditions. The medium was removed; the compounds were added to the plates at 10 μM concentrations (in 0.1% DMSO) in triplicates, followed by incubation for 48h. DMSO (0.1%) was used as control. After incubation, medium was removed followed by the addition of PI (25 μl, 50μg/mL in water/medium) to each well of the plates. At - 80 °C, the plates were allowed to freeze for 24 h, followed by thawing at 25 °C. A fluorometer (Polar-Star BMG Tech) was used to record the readings at excitation and emission wavelengths of 530 and 620 nm for each well. The percentage cytotoxicity of compounds was calculated using […]
(§5) Where ATC= Absorbance of treated cells and AC= Absorbance of control. Erlotinib was used as positive control in the assay. […]

The test system of series [2] is A-549 (lung cancer). The series is described as follows: Antiproliferative assay, A-549. The conditions noted are these: Homo sapiens, A549; A-549 lung cancer cells; read-out: Antiproliferative activity IC50 ± SEM, A-549. Format: cell-based.
Text: as §1, §2, §3, §4, §5

Series [3] has as its system HT-29 (colon cancer). In words: Antiproliferative assay, HT-29. The format is cell-based. The conditions noted are these: Homo sapiens; HT-29 colon cancer cells; read-out: Antiproliferative activity IC50 ± SEM, HT-29.
Text: as §1, §2, §3, §4, §5

The test system of series [4] is MCF-7 (breast cancer). In words: Antiproliferative assay, MCF-7. The format is cell-based, human. The conditions noted are these: Homo sapiens, MCF7; MCF-7 breast cancer cells; read-out: Antiproliferative activity IC50 ± SEM, MCF-7.
Text: as §1, §2, §3, §4, §5

Series [5] has as its system four human cancer cell lines (A-549, MCF-7, Panc-1, HT-29). In words: Antiproliferative assay, average over four cancer cell lines. Format: cell-based. The conditions noted are these: for GI50: Homo sapiens, average IC50 across A-549, MCF-7, Panc-1, HT-29; for Reduction in antiproliferative potency relative to 10k (GI50): less potent than 10k. On the procedure:
The given findings were obtained from at least two distinct studies, each comprising three repeats per concentration. Appendix A (SI File) provides experimental details.[38,39] […]
as §3
To explore the antiproliferative potential of compounds propidium iodide fluorescence assay was performed using different cell lines such as Panc-1 (pancreas cancer cell line), MCF-7 (breast […]
respectively. To calculate the total nuclear DNA, a fluorescent dye (propidium iodide, PI) is used which can attach to the DNA, thus offering a quick and precise technique. PI cannot pass through the cell membrane and its signal intensity can be considered as directly proportional to quantity of cellular DNA. Cells whose cell membranes are damaged or have changed permeability are counted as dead ones. The assay was performed by seeding the cells of different cell lines at a density of 3000-7500 cells/well (in 200μl medium) in culture plates followed by incubation for 24h at 37 °C […]
The medium was removed; the compounds were added to the plates at 10 μM concentrations (in 0.1% DMSO) in triplicates, followed by incubation for 48h. DMSO (0.1%) was used as control. After incubation, medium was removed followed by the addition of PI (25 μl, 50μg/mL in water/medium) to each well of the plates. At - 80 °C, the plates were allowed to freeze for 24 h, followed by thawing at 25 °C. A fluorometer (Polar-Star BMG Tech) was used to record the readings at excitation and emission wavelengths of 530 and 620 nm for each well. The percentage cytotoxicity of compounds was calculated using […]
Where ATC= Absorbance of treated cells and AC= Absorbance of control. […]
positive control in the assay. […]

Series [6] can be described thus: Cell viability assay (MTT) on normal MCF-10A cells. The conditions noted are these: human, MCF-10A mammary gland epithelial cells (normal cell line), MCF-10A normal cells, four-day incubation. Format: cell-based. On the procedure: The impact of novel compounds 10a–l on the viability of a normal human cell line, specifically human mammary gland epithelial cells (MCF-10A), was assessed to ascertain the safety of the newly synthesized compounds. The MTT test was employed to assess the cell viability of the novel compounds after a four-day incubation with MCF-10A cells.[29,37] Refer to Appendix A for more experimental details.
The effect of new compounds 10a–l on the viability of a normal human cell line, namely human mammary gland epithelial cells (MCF-10A), was evaluated to determine the safety of the newly synthesized compounds.
4.2. Biological evaluation
4.2.1 Cell Viability assay (MTT assay)
MTT assay was performed to investigate the effect of the synthesized compounds on mammary epithelial cells (MCF-10A). The cells were propagated in medium consisting of Ham's F-12 medium/ Dulbecco's modified Eagle's medium (DMEM) (1:1) supplemented with 10% foetal calf serum, 2 mM glutamine, insulin (10 μg/mL), hydrocortisone (500 ng/mL) and epidermal growth factor (20 ng/mL). Trypsin ethylenediamine tetra acetic acid (EDTA) was used to passage the cells after every 2-3 days. 96-well flat-bottomed cell culture plates were used to seed the cells at a density of 10^4 cells mL-1. The medium was aspirated from all the wells of culture plates after 24 h followed by the addition of synthesized compounds (in 200 μL medium to yield a final concentration of 0.1% (v/v) dimethyl sulfoxide) into individual wells of the plates. Four wells were designated to a single compound. The plates were allowed to incubate at 37°C for 96 h. Afterwards, the medium was aspirated and 3-[4,5-dimethylthiazol-2-yl]-2,5-diphenyltetrazolium bromide (MTT) (0.4 mg/mL) in medium was added to each well and subsequently incubated for 3 h. The medium was aspirated and 150 μL dimethyl sulfoxide (DMSO) was added to each well. The plates were vortexed followed by the measurement of absorbance at 540 nm on a microplate reader. […]

In series [7] the test system is caspase-9. The series is described as follows: Caspase-9 activation assay in MCF-7 cells. Format: cell-based, human. As for the experimental part: (§6) Compounds10k and 10l were tested as caspases-3, 8, 9, Bax and p53 activators and as down-regulators of the anti-apoptotic protein Bcl2 against the MCF-7 breast cancer cell line.[41] Appendix A gives more details.
(§7) To elucidate the apoptotic processes of compounds 10k and 10l, whether via the intrinsic or extrinsic pathway, their impacts on caspase-8 and caspase-9 were evaluated. […] This signifies the activation of both intrinsic and extrinsic pathways (Table 5).
(§8) 4.2.6. Caspase-8/9 activation assay
(§9) Cells were obtained from American Type Culture Collection, cells were grown in RPMI 1640 containing 10% fetal bovine serum at 37°C, stimulated with the compounds to be tested for caspase 8/9, and lysed with Cell Extraction Buffer. This lysate was diluted in Standard Diluent Buffer over the range of the assay and measured for human active caspase-8/9 content. (Cells are Plated in a density of 1.2 – 1.8 × 10,000 cells/well in a volume of 100µl complete growth medium + 100 ul of the tested compound per well in a 96-well plate for 24 hours before the enzyme assay). The absorbance of each microwell was read on a spectro-photometer at 450 nm. […]

The subject of series [8] is caspase-3. The series is described as follows: Caspase-3 activation assay in MCF-7 cells. The format is cell-based, human. The conditions noted are these: vs untreated control.
Series [9] concerns caspase-8. In words: Caspase-8 activation assay in MCF-7 cells. Format: cell-based, human. As for the experimental part:
as §6, §7, §8, §9

For the compound `C#Cc1cccc(Nc2ncnc3cc(OCCOC)c(OCCOC)cc23)c1` [Erlotinib, reference compound], the IC50 in series [1] amounted to 30 ± 3 nM; in series [2] it was 30 ± 3 nM; in series [3], 30 ± 3 nM; in series [4], 40 ± 3 nM.

With `COc1ccc(-c2noc(CSc3nc(-c4ccccc4)c(C#N)c(=O)[nH]3)n2)cc1` [Compound 10c, 2-(((3-(4-Methoxyphenyl)-1,2,4-oxadiazol-5-yl)methyl)thio)-6-oxo-4-phenyl-1,6-dihydropyrimidine-5-carbonitrile], the IC50 worked out at 44 ± 3 nM in series [1], 49 ± 3 nM in [2], 51 ± 3 nM in [3] and 44 ± 3 nM in [4]. Further, the GI50 in series [5] turned out to be 47 nM. This compound also gave a viability at 96 h, 50 µM in series [6] of 92%.

Regarding `N#Cc1c(-c2ccccc2)nc(SCc2nc(-c3ccccc3)no2)[nH]c1=O` [Compound 10a, 2-(((3-Phenyl-1,2,4-oxadiazol-5-yl)methyl)thio)-6-oxo-4-phenyl-1,6-dihydropyrimidine-5-carbonitrile], the IC50 in series [1] is 42 ± 3 nM; in series [2], 44 ± 3 nM; in series [3], 45 ± 3 nM; in series [4], 40 ± 3 nM. Besides, the GI50 in [5] was 43 nM. The compound also had a viability at 96 h, 50 µM in series [6] of 91%.

As to `CN[C@@H]1C[C@H]2O[C@@](C)([C@@H]1OC)n1c3ccccc3c3c4c(c5c6ccccc6n2c5c31)C(=O)NC4` [Staurosporine, reference compound], the “Caspase-9 Conc” value in [7] worked out at 20 ± 1 ng/mL. The “Caspase-9 Fold change” value in series [7] (vs untreated control) turned out to be 20 fold. Besides, the “Caspase-3 Fold change” value in series [8] is on record as 7.00 fold. Also, the “Caspase-8 Conc” value in series [9] came out at 1.90 ± 0.10 ng/mL. In addition, the “Caspase-8 Fold change” value in series [9] (vs untreated control) is reported as 19.00 fold.

`COc1ccc(-c2noc(CSc3nc(-c4ccncc4)c(C#N)c(=O)[nH]3)n2)cc1` [Compound 10f, 2-(((3-(4-Methoxyphenyl)-1,2,4-oxadiazol-5-yl)methyl)thio)-6-oxo-4-(pyridin-4-yl)-1,6-dihydropyrimidine-5-carbonitrile]: the IC50 worked out at 50 ± 4 nM in [1], 52 ± 4 nM in series [2], 54 ± 4 nM in series [3] and 49 ± 3 nM in series [4]. The compound further gave a GI50 in [5] of 51 nM. The same compound gave a viability at 96 h, 50 µM in [6] of 91%.

For the compound `N#Cc1c(-c2ccncc2)nc(SCc2nc(-c3ccccc3)no2)[nH]c1=O` [Compound 10d, 2-(((3-Phenyl-1,2,4-oxadiazol-5-yl)methyl)thio)-6-oxo-4-(pyridin-4-yl)-1,6-dihydropyrimidine-5-carbonitrile], the IC50 in [1] is 53 ± 4 nM; in series [2], 56 ± 4 nM; in series [3], 57 ± 4 nM; in [4], 51 ± 4 nM. In series [5], this compound displayed a 50% growth inhibitory concentration (GI50) of 54 nM. Besides, the viability at 96 h, 50 µM in series [6] is 89%.

Take `N#Cc1c(-c2ccc(Cl)cc2)nc(SCc2nc(-c3ccccc3)no2)[nH]c1=O` [Compound 10g, 2-(((3-Phenyl-1,2,4-oxadiazol-5-yl)methyl)thio)-4-(4-chlorophenyl)-6-oxo-1,6-dihydropyrimidine-5-carbonitrile]: the IC50 in series [1] stood at 37 ± 2 nM; in series [2], 39 ± 2 nM; in series [3], 40 ± 2 nM; in series [4], 35 ± 2 nM. In [5], this compound gave a GI50 of 38 nM. For the same compound, the viability at 96 h, 50 µM in series [6] was determined as 90%.

Regarding `COc1ccc(-c2nc(SCc3nc(-c4ccccc4)no3)[nH]c(=O)c2C#N)cc1` [Compound 10j, 2-(((3-Phenyl-1,2,4-oxadiazol-5-yl)methyl)thio)-4-(4-methoxyphenyl)-6-oxo-1,6-dihydropyrimidine-5-carbonitrile], the IC50 in [1] turned out to be 68 ± 5 nM; in [2], 69 ± 5 nM; in [3], 70 ± 5 nM; in series [4], 65 ± 5 nM. Also, the GI50 in series [5] was found to be 68 nM. Besides, the “Reduction in antiproliferative potency relative to 10k (GI50)” value in [5] is given as 3 fold. In series [6], this compound registered a viability at 96 h, 50 µM of 89%.

For `N#Cc1c(-c2ccccc2)nc(SCc2nc(-c3ccc(Cl)cc3)no2)[nH]c1=O` [Compound 10b, 2-(((3-(4-Chlorophenyl)-1,2,4-oxadiazol-5-yl)methyl)thio)-6-oxo-4-phenyl-1,6-dihydropyrimidine-5-carbonitrile], the IC50 in series [1] came to 61 ± 5 nM; in [2], 65 ± 5 nM; in series [3], 66 ± 5 nM; in series [4], 61 ± 5 nM. This compound came in with a GI50 in series [5] of 63 nM. The “Reduction in antiproliferative potency relative to 10k (GI50)” value in series [5] was 2.9 fold. The compound also registered a viability at 96 h, 50 µM in series [6] of 90%.
